Data on six compounds can be found in US4001228A, “2-Thiol-4,5-diphenyloxazole S-derivatives” (Serono Laboratories, Inc., priority 1974, dated 1977).

Usually LD50 stands for the dose at which mortality reaches 50%. A high value points to a less toxic substance.

Where a name gives a salt, the structure may show the parent alone. Read-outs that look alike come from different tables or passages of the source.

In series [1] the test system is ADP induced platelet aggregation (platelet-rich rabbit plasma). In words: ADP (5 μg/ml) induced platelet aggregation in vitro on platelet-rich plasma. It counts as cell-based. The conditions noted are these: Oryctolagus cuniculus, 10 min. The protocol: (§1) The inhibitory activity on platelet aggregation was determined for the same compounds in vitro on platelet-rich rabbit plasma prepared by collecting the blood in a plastic centrifuge tube containing enough 3.8% sodium citrate to give a concentration of 0.38 g/100 ml when mixed with the blood, and then centrifuging at 100 × g for 20 minutes.
(§2) 1 ml aliquots of the thus prepared plasma were placed in a Platelet Aggregation Meter connected to a potentiometric recorder and tested according to Born, Nature (London), 194, 927 (1962).
(§3) The plasma-test compound mixtures were incubated for 10 min. at 37° C before addition of the aggregating agents, that is, Adenosine Diphosphate (ADP) or collagen.
(§4) The curves were read following the method described by O'Brien et al., Thromb. Diath. Haemorrhag. 16, 751 (1966). Slope and maximum transmission were recorded and expressed as % change with respect to controls. In the case of collagen induced platelet aggregation, the delay time ("reaction time") in seconds from the addition of the aggregating agent to the inflection of the curve was also measured and expressed as % change as above. For comparison purposes, acetylsalicylic acid (ASA) was also tested in the same conditions as the test compounds.
(§5) Negative figures in slope and maximum transmission % changes indicate antiaggregating activity. Positive figures in delay time % changes indicate that the compound is effective in prolonging the reaction time in the collagen induced platelet aggregation test.

Series [2] has as its system collagen induced platelet aggregation (platelet-rich rabbit plasma). Description: Collagen (40 μg/ml) induced platelet aggregation in vitro on platelet-rich plasma. It counts as cell-based. The conditions noted are these: Oryctolagus cuniculus, 10 min. The procedure:
as §1, §2, §3, §4, §5

Series [3] in a line: Acute toxicity determined as approximate LD50. In kind it is in vivo. The conditions noted are these: mouse, in vivo, ip; three groups of three "Swiss" mice. The procedure: (§6) The acute toxicity of some of the compounds of formula (I) was determined as approximate LD50, according to the method described in Acta Pharmacol, et toxicol, 25, 345 (1967), on three groups of three "Swiss" mice.

In a further series the test system is "Swiss" mice. Description: Acute toxicity determined as approximate LD50. The conditions noted are these: i.p.; three groups of three "Swiss" mice. It counts as in vivo. The procedure: as §6
[4] abbreviates: read-out: Maximum transmission, % change.

Turning to `CC(=O)Oc1ccccc1C(=O)O` [ASA, acetylsalicylic acid, reference compound], the inhibition at 100 µg/mL is 13.2% in series [1] (setting [4]) and 17.4% in series [1] (read-out: Slope, % change). In addition, the inhibition at 1.25 µg/mL in series [2] (setting [4]) turned out to be 15.2%; in series [2] (read-out: Slope, % change), 22.1%.

`O=C(O)CSc1nc(-c2ccccc2)c(-c2ccccc2)o1` [Example 2, S-(4,5-DIPHENYLOXAZOL-2-yl)-MERCAPTOACETIC ACID]: the LD50 in series [3] was roughly 220 mg/kg.

In the case of `O=C(O)CSc1nc(-c2ccccc2)c(-c2ccccc2)o1` [Example 3, 2-DIMETHYLAMINOETHANOL SALT OF S-(4,5-DIPHENYLOXAZOL-2-YL)-MERCAPTOACETIC ACID], in the series with "Swiss" mice, the “Approximate LD50” value is recorded as roughly 220 mg/kg. The water solubility result in “Solubility (qualitative)” is given as “water-soluble”.

In the case of `O=C(O)CSc1nc(-c2ccccc2)c(-c2ccccc2)o1` [Example 4, METHYLAMINOETHANOL SALT OF S-(4,5-DIPHENYLOXAZOL-2-YL)-MERCAPTOACETIC ACID], the “Approximate LD50” value in the series with "Swiss" mice is given as roughly 220 mg/kg.

In turn, `CN(C)CCOC(=O)CSc1nc(-c2ccccc2)c(-c2ccccc2)o1` [Example 5, 2-DIMETHYL[…]-(4,5-DIPHENYLOXAZOL-2-YL)-MERCAPTOACETATE] had an LD50 in series [3] of roughly 220 mg/kg. The inhibition at 100 µg/mL worked out at 45.2% in series [1] (setting [4]) and 47.2% in series [1] (read-out: Slope, % change). Besides, the inhibition at 1.25 µg/mL came out at 67.7% in series [2] (setting [4]) and 72.5% in series [2] (read-out: Slope, % change). In addition, the water solubility entry in “Solubility (qualitative)” was “water soluble”.

Regarding `NC(=O)CSc1nc(-c2ccccc2)c(-c2ccccc2)o1` [Example 9, S-(4,5-DIPHENYLOXAZOL-2-YL)-MERCAPTOACETAMIDE], the LD50 in series [3] was roughly 1200 mg/kg. The inhibition at 100 µg/mL in series [1] (ADP 5 μg/ml, compound 100 μg/ml, 10 min incubation at 37° C, change with respect to controls, negative = antiaggregating, read-out: Maximum transmission, % change) was determined as 6.6%; in series [1] (ADP 5 μg/ml, compound 100 μg/ml, 10 min incubation at 37° C, change with respect to controls, negative = antiaggregating, read-out: Slope, % change), 7.1%. The inhibition at 1.25 µg/mL in series [2] (collagen 40 μg/ml, compound 1.25 μg/ml, 10 min incubation at 37° C, change with respect to controls, negative = antiaggregating, read-out: Maximum transmission, % change) amounted to 12.3%; in series [2] (collagen 40 μg/ml, compound 1.25 μg/ml, 10 min incubation at 37° C, change with respect to controls, negative = antiaggregating, read-out: Slope, % change), 18.4%.
